Measurements as given in PubChem BioAssay (NCI).
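The compound was tested at five concentrations on cells cultured in 96-well plates, with a 48-hour exposure period. Here, GI50 denotes the concentration required for 50% inhibition of growth. Definition used: TGI = concentration required for complete inhibition of growth.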

Key:
Experiment in all cases: inhibition of tumour cell growth, NCI panel, 48 h
BT-549 breast = system: BT-549 breast
RPMI-8226 leukemia = system: RPMI-8226 leukemia
PC-3 prostate = system: PC-3 prostate
TK-10 renal = system: TK-10 renal
SF-539 CNS = system: SF-539 CNS
HCT-15 colon = system: HCT-15 colon
KM12 colon = system: KM12 colon

SMILES | GI50 (BT-549 breast) | TGI (BT-549 breast) | GI50 (RPMI-8226 leukemia) | TGI (RPMI-8226 leukemia) | GI50 (PC-3 prostate) | TGI (PC-3 prostate) | GI50 (TK-10 renal) | TGI (TK-10 renal) | GI50 (SF-539 CNS) | TGI (SF-539 CNS) | GI50 (HCT-15 colon) | TGI (HCT-15 colon) | GI50 (KM12 colon) | TGI (KM12 colon)
CC(C)COC(=O)c1ccc2[nH]c(O)c(C=Nc3ccc(S(N)(=O)=O)cc3)c2c1 | 1.65 µM | 4 µM | 2.55 µM | 18.8 µM | 1.6 µM | 6.54 µM | 1.65 µM | 4.52 µM | 0.975 µM | 3.67 µM | 5.9 µM | 25 µM | 1.06 µM | 3.87 µM
COc1ccc2nc(NC(=O)c3cccnc3Nc3cc(OC)c(OC)c(OC)c3)sc2c1 | 11.6 µM | 28.2 µM | 9.94 µM | 34.9 µM | 6.67 µM | 23.2 µM | 4.31 µM | 14.1 µM | 2.8 µM | 11.2 µM | 11.2 µM | 85.6 µM | 4.51 µM | 19 µM
CN1C(Cl)=NS(=O)(=O)c2ccccc21 |  | > 100 µM |  |  |  | > 100 µM |  | > 100 µM |  | > 100 µM |  | > 100 µM |  | > 100 µM
COc1cc2c3c(n(CCCN=[N+]=[N-])c(=O)c2cc1OC)-c1ccc(N(C)C)cc1C3=O | > 100 µM | > 100 µM | > 100 µM | > 100 µM | > 100 µM | > 100 µM | > 100 µM | > 100 µM | > 100 µM | > 100 µM | > 100 µM | > 100 µM | > 100 µM | > 100 µM
O=S(=O)(NCCNc1nccc(-c2c(-c3ccc(F)cc3)nc3sccn23)n1)c1ccccc1 |  |  | 3.79 µM | 33 µM | 4 µM | 78.8 µM | 9.41 µM | 73.5 µM | 19 µM | > 100 µM | 3.07 µM | > 100 µM | 4.12 µM | 68.3 µM
C=CS(=O)(=O)CCN1CC1 |  | > 10 µM |  | > 10 µM |  | > 10 µM |  | > 10 µM |  | > 10 µM |  | > 10 µM |  | > 10 µM
COc1ccc(Nc2c3ccccc3nc3[nH]c4ccccc4c23)cc1 | 13.7 µM | > 50 µM | 2.33 µM | 33.4 µM | 7.87 µM | 28.9 µM | 26.7 µM | > 50 µM | 6.5 µM | 20 µM | 8.33 µM | > 50 µM | > 50 µM | > 50 µM
O=C(Nc1ccc(I)cc1F)c1cc(Cl)ccc1O | 0.372 µM | 1.73 µM | 0.28 µM | 1.28 µM | 1.91 µM | 6.5 µM | 1.13 µM | 16.3 µM | 0.409 µM | 3.89 µM | 0.554 µM | 10.7 µM | 2.31 µM | 6.01 µM
c1ccc(CNc2nc(Nc3ccccc3)nc3ccccc23)cc1 | 1.9 µM | 3.97 µM | 1.41 µM | 4.42 µM | 1.66 µM | 4.9 µM | 2.02 µM | 4.53 µM | 1.69 µM | 3.14 µM |  |  | 2.92 µM | 10.1 µM
Oc1ccc(Cl)cc1CNc1nc2ccccc2[nH]1 | 9.05 µM | 23.3 µM | 10 µM | 49.5 µM | 9.75 µM | 23.3 µM | 15.7 µM | 31.2 µM | 12.9 µM | 26.8 µM | 11.5 µM | 26.1 µM | 13.3 µM | 27 µM
CN(/N=N/c1nc(OCc2ccccc2)c2[nH]cnc2n1)C(=O)Oc1ccc([N+](=O)[O-])cc1 | 7.35 µM | 20.4 µM | 9.12 µM | > 50 µM | 10.8 µM | 27.1 µM | 12 µM | 34 µM | 9.88 µM | 28.8 µM | 8.9 µM | 20 µM | 8.49 µM | 18.7 µM
NCCSCCc1ccccc1 |  | > 100 µM |  | > 100 µM |  | > 100 µM |  | > 100 µM |  | > 100 µM |  | > 100 µM |  | > 100 µM
O=C(Nc1ccc(Cl)c(Cl)c1)OCCN1c2ccccc2Sc2ccccc21 |  | > 10 µM |  | > 10 µM |  | > 10 µM |  | > 10 µM |  | > 10 µM |  | > 10 µM |  | > 10 µM
CC(Br)C(=O)Nc1ccc(C(=O)O)c(O)c1 (stereo not drawn) |  | > 100 µM |  | > 100 µM |  | > 100 µM |  | > 100 µM |  | > 100 µM |  | > 100 µM |  | > 100 µM
C=C1c2c(Cl)ccc(O)c2C(O)=C2C(=O)[C@]3(O)C(O)=C(C(N)=O)C(=O)[C@@H](N(C)C)[C@@H]3[C@@H](O)[C@H]12 | 1.07 µM | 3.24 µM | 1.1 µM | 4.25 µM | 1.34 µM | 31.4 µM | 0.656 µM | 3.41 µM | 1.32 µM | 4.61 µM | 1.44 µM | > 50 µM | 1.49 µM | 6.17 µM
O=C1C=CC(O)C2C1CC13SSC4(CC5C(=O)C=CC(O)C5N4C1=O)C(=O)N23 (stereo not drawn) |  | 3.65 µM |  | 0.093 µM |  | 1.13 µM |  | 1.81 µM |  | 0.505 µM |  | 0.794 µM |  | 0.342 µM
ClCc1ccc(Cn2cnc3c(Cl)nc(Cl)nc32)cc1 | 15.8 µM | 29.8 µM |  |  | 2.7 µM | 7.17 µM | 6.68 µM | 20.3 µM | 17.1 µM | 31.1 µM | 1.86 µM | 3.77 µM | 1.8 µM | 3.23 µM
COc1ccc(Nc2cc(C)nc(N3CCN(c4ccnc5cc(Cl)ccc45)CC3)n2)cc1 | 2.22 µM | 8.06 µM | 2.18 µM | 8.91 µM | 2.21 µM | > 100 µM | 3.64 µM | 47.6 µM |  |  | 2.06 µM | > 100 µM | 1.64 µM | 31.6 µM
COc1cc(Cl)cc(-c2nn(-c3cccc(NC(=O)Nc4ccc(Cl)c(C(F)(F)F)c4)c3)cc2-c2ccncc2)c1 | 2.38 µM | 6.66 µM | 0.402 µM | 2.07 µM | 0.342 µM | 2.12 µM |  |  | 1.5 µM | 3.35 µM | 0.493 µM | 2.4 µM | 0.555 µM | 4.44 µM
